Measured values published in patent publication US20250230147A1, “LACTAMS AS CBL-B INHIBITORS” (Genentech, Inc., priority 2021, published 2025).

Legend:
c-Cbl = c-Cbl (Homo sapiens (Human), UniProt P22681); assay: C-Cbl LCK Ub TR-FRET assay (c-cbl Lck HTRF); format: biochemical; settings: for (fold-selectivity): C-cbl Lck HTRF IC50 relative to Cbl-b Lck HTRF IC50
Outline: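 Detection reagents added, brief spin, 20 min RT. IC50 fit normalized to no-LCK (low) and DMSO (high) controls.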

Cbl-b = Cbl-b (Homo sapiens (Human), UniProt Q13191); assay: Cbl-b LCK Ub TR-FRET assay (Cbl-b Lck HTRF); format: biochemical
Sequence of Cbl-b (Q13191 40-426): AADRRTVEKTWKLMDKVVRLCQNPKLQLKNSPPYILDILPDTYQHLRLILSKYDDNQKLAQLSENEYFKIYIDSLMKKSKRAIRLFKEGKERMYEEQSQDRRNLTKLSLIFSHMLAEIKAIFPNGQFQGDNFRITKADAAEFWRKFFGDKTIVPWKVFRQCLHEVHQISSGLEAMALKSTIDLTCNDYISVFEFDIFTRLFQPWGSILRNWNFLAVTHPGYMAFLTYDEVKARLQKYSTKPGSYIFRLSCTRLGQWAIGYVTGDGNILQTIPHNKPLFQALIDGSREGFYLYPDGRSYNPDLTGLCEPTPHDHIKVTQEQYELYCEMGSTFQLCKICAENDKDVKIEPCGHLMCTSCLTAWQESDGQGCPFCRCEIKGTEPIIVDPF
Outline: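 TR-FRET (340 nm excitation, 615/665 nm emission) read after adding HA-ubiquitin–UBE2D2 thioester, anti-HA-D2 and streptavidin-Eu. Beforehand, compounds incubated 60 min with biotinylated Cbl-b, then 90 min with His-LCK and ATP (1 mM in 2× mix); IC50 from 10 concentrations, DMSO high and no-LCK low controls.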

Sequence of c-Cbl (P22681 47-435): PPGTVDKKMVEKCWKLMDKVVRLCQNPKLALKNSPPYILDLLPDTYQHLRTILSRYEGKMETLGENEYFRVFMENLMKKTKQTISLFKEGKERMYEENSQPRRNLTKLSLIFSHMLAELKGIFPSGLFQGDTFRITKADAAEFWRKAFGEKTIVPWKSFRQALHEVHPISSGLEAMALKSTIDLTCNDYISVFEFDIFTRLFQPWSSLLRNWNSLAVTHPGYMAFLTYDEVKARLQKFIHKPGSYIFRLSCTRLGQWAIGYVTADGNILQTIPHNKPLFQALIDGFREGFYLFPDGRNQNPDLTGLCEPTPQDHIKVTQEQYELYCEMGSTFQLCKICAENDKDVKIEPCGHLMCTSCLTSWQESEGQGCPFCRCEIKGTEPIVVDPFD

IC50 (c-Cbl) [nM]	(fold-selectivity) (c-Cbl)	IC50 (Cbl-b) [nM]	SMILES
110	(3.4x)	36	Cn1cnnc1CC1(c2cc(NC3CCCC3)cc(N3Cc4c(cc(CNC5(C)CCC5)cc4C(F)(F)F)C3=O)c2)CC(F)(F)C1 [Compound 477, 2-(3-(cyclopentylamino)-5-(3,3-difluoro-1-((4-methyl-4H-1,2,4-triazol-3-yl)methyl)cyclobutyl)phenyl)-6-(((1-methylcyclobutyl)amino)methyl)-4-(trifluoromethyl)isoindolin-1-one]
150	(1.0x)	150	Cn1cnnc1[C@H](F)C1(c2cccc(N3Cc4c(cc(CN5CCC5)cc4C(F)(F)F)C3=O)c2)CC(F)(F)C1 [Compound 397, (R)-6-(azetidin-1-ylmethyl)-2-(3-(3,3-difluoro-1-(fluoro(4-methyl-4H-1,2,4-triazol-3-yl)methyl)cyclobutyl)phenyl)-4-(trifluoromethyl)isoindolin-1-one]
25	2.0x	13	CC(C)[C@H]1CN(C)CCN1Cc1cc2c(c(C(F)(F)F)c1)CN(c1cccc(C3([C@H](F)c4nncn4C)COC3)c1)C2=O [Compound 188, 2-(3-(3-((S)-fluoro(4-methyl-4H-1,2,4-triazol-3-yl)methyl)oxetan-3-yl)phenyl)-6-(((S)-2-isopropyl-4-methylpiperazin-1-yl)methyl)-4-(trifluoromethyl)isoindolin-1-one]
8.6	(0.79x)	11	CCNc1cc(N2Cc3c(cc(CNC4(C)CCC4)cc3C(F)(F)F)C2=O)cc(C2(Cc3nncn3C)COC2)c1 [Compound 474, 2-(3-(ethylamino)-5-(3-((4-methyl-4H-1,2,4-triazol-3-yl)methyl)oxetan-3-yl)phenyl)-6-(((1-methylcyclobutyl)amino)methyl)-4-(trifluoromethyl)isoindolin-1-one]
20	(1.2x)	16	Cn1cnnc1[C@H](F)C1(c2cccc(N3Cc4c(cc(CNCCCF)cc4C(F)(F)F)C3=O)c2)CC(F)(F)C1 [Compound 447, (R)-2-(3-(3,3-difluoro-1-(fluoro(4-methyl-4H-1,2,4-triazol-3-yl)methyl)cyclobutyl)phenyl)-6-(((3-fluoropropyl)amino)methyl)-4-(trifluoromethyl)isoindolin-1-one]
26	(0.73x)	35	CC[C@@H]1CN(Cc2cc3c(c(C(F)(F)F)c2)CN(c2cccc(C4(Cc5nncn5C)CC(F)(F)C4)c2)C3=O)CCN1 [Compound 426, (R)-2-(3-(3,3-difluoro-1-((4-methyl-4H-1,2,4-triazol-3-yl)methyl)cyclobutyl)phenyl)-6-((3-ethylpiperazin-1-yl)methyl)-4-(trifluoromethyl)isoindolin-1-one]
5.3	(0.71x)	11	CCOc1cc(C2(Cc3nncn3C)CCC2)cc(N2Cc3c(cc(CNC4(C)CCC4)cc3C(F)(F)F)C2=O)n1 [Compound 359, 2-(6-ethoxy-4-(1-((4-methyl-4H-1,2,4-triazol-3-yl)methyl)cyclobutyl)pyridin-2-yl)-6-(((1-methylcyclobutyl)amino)methyl)-4-(trifluoromethyl)isoindolin-1-one]
3100	2.6x	1200	Cn1cnnc1[C@@H](F)C1(c2cccc(N3Cc4c(cc(CN5CC6CC5C6)cc4C(F)(F)F)C3=O)c2)COC1 [Compound 87, (S)-6-((2-azabicyclo[2.1.1]hexan-2-yl)methyl)-2-(3-(3-(fluoro(4-methyl-4H-1,2,4-triazol-3-yl)methyl)oxetan-3-yl)phenyl)-4-(trifluoromethyl)isoindolin-1-one]
